The target in one assay is T1, CFR1R receptor (Homo sapiens, UniProt P34998).
T1 construct: host or cells: CHO-K1 (clone 2)
T1 sequence (P34998 24-415): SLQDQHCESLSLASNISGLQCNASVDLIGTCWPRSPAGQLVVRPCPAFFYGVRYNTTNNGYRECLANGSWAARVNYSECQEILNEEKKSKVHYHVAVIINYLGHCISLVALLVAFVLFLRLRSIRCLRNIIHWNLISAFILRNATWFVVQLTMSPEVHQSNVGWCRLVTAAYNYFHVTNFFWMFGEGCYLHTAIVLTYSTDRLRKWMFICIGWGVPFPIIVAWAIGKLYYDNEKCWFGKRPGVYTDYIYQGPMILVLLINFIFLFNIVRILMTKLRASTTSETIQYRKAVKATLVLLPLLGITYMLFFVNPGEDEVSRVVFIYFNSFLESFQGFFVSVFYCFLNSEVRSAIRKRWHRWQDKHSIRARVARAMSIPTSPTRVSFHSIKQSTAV
The assay can be described thus: Activity at anti-target CFR1R receptor, cAMP assay in CRF1R-overexpression CHO-K1 cells. The class given is cell-based. The note with it: 100% = Sauvagine at 100 nM; for EC50: cAMP. The method, boiled down: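 Grow clone 2 to near confluence at 37° C. under 5% CO2 in F12 (Hams) with 10% FBS and G418, harvest, and freeze in 10% DMSO. Thaw and plate at 4000 cells/well. Then proceed per the TeloHAEC method, normalising to Sauvagine 100 nM as maximum.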
(Changes in cAMP serve as a functional read-out for many G protein-coupled receptors.)

For another assay, the target named is T2, human CRF2a receptor (Homo sapiens, UniProt Q13324).
T2 construct: expressed in transfected cells; host or cells: TeloHEAC cells
T2 sequence (Q13324 1-411): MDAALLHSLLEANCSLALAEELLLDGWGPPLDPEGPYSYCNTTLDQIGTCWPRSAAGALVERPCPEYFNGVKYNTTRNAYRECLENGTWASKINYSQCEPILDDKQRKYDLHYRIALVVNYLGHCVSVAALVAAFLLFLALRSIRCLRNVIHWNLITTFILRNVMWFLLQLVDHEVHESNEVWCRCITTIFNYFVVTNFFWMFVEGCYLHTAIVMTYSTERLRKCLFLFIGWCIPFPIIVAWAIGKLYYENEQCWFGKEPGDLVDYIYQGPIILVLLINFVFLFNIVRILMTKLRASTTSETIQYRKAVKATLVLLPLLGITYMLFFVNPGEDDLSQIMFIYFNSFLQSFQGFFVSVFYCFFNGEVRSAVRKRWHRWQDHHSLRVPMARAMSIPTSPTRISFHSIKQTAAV
The assay can be described thus: Activity at human CRF2a receptor, cAMP functional assay in TeloHEAC cells. The class given is cell-based. The conditions noted are these: TeloHEAC cells stably expressing human CRF2a receptor, relative to urocortin 2 (100 nM = 100%). In outline: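 cAMP accumulation was measured by HTRF 665/620 nm ratio after 30 min at 37° C compound exposure (16 twofold dilutions) of CRF2a-expressing TeloHEAC cells, 10000/well, in HEPES-buffered HBSS plus IBMX. Activity was normalised to urocortin 2 at 100 nM (100%), and EC50 was the concentration giving half-maximal activation.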

These results are taken from patent publication US20260001928A1 (CORTERIA PHARMACEUTICALS, priority 2022, published 2026).

SMILES strings stand for the structures. *1 amine or outer side, *2 acyl side, *3 side chain or, on linkers, in order; H or OH if unused. Where a SMILES comes first, the peptide text is derived from it. Side-chain parts run from the residue outwards. [ ]: non-standard residue; d: D form. The star is where a group is joined. C18 diacid = O=C(O)CCCCCCCCCCCCCCCCC(=O)*; γGlu = O=C(O)[C@H](CCC(=O)[*:2])N[*:1]; Ac6c = NC1(C(=O)O)CCCCC1; Ac5c = NC1(C(=O)O)CCCC1; Api = NC1(C(=O)O)CCNCC1; Dap = NC[C@H](N)C(=O)O

The EC50 is the concentration that produces a half-maximal response. High values mean a less potent agent, low ones a more potent agent. Turning to `CC[C@H](C)[C@H](NC(C)=O)C(=O)N[C@H](C(=O)N[C@@H](CC(C)C)C(=O)N[C@@H](CO)C(=O)N[C@@H](CC(C)C)C(=O)N[C@@H](CC(=O)O)C(=O)N[C@@H](C(=O)N1CCC[C@H]1C(=O)N[C@H](C(=O)N[C@@H](CCCCN)C(=O)N[C@@H](CC(C)C)C(=O)N[C@@H](CCCCNC(=O)CC[C@H](NC(=O)CCCCCCCCCCCCCCCCC(=O)O)C(=O)O)C(=O)N[C@@H](CCCCN)C(=O)N[C@H](C(=O)N[C@@H](CC(C)C)C(=O)N[C@@H](CC(C)C)C(=O)N[C@@H](CCC(=O)O)C(=O)N[C@@H](CCC(N)=O)C(=O)N[C@@H](CCC(=O)O)C(=O)N[C@@H](CCCCN)C(=O)N[C@@H](CCC(N)=O)C(=O)N[C@@H](CCCCN)C(=O)N[C@@H](CCCCN)C(=O)N[C@@H](CCC(N)=O)C(=O)N[C@@H](CCCNC(=N)N)C(=O)N[C@@H](CCC(=O)O)C(=O)N[C@@H](CCC(N)=O)C(=O)N[C@@H](C)C(=O)N[C@@H](CCC(=O)O)C(=O)N[C@H](C(=O)N[C@@H](CC(N)=O)C(=O)N[C@@H](CN)C(=O)N[C@@H](CCC(N)=O)C(=O)N[C@H](C(=O)N[C@@H](CC(C)C)C(=O)N[C@@H](C)C(=O)N[C@@H](CCC(N)=O)C(=O)N[C@H](C(N)=O)C(C)C)[C@@H](C)CC)[C@@H](C)O)[C@@H](C)CC)[C@@H](C)CC)C(C)C)C(C)C` [compound 128] (Ac-IVLSLD[dV]PIKLK([γGlu-C18 diacid])KILLEQEKQKKQREQAETN[Dap]QILAQV-NH2), at CFR1R receptor, the “Emax (% I)” value was found to be 10 % I and the EC50 was > 250 nM. The EC50 at human CRF2a receptor came to 0.17 nM.

`CC[C@H](C)[C@H](NC(C)=O)C(=O)N[C@H](C(=O)N[C@@H](CC(C)C)C(=O)N[C@@H](CO)C(=O)N[C@@H](CC(C)C)C(=O)N[C@@H](CC(=O)O)C(=O)N[C@@H](C(=O)N1CCC[C@H]1C(=O)N[C@H](C(=O)N[C@@H](CCCCN)C(=O)N[C@@H](CC(C)C)C(=O)N[C@@H](CCCCNC(=O)CC[C@H](NC(=O)CCCCCCCCCCCCCCCCC(=O)O)C(=O)O)C(=O)N[C@@H](CCCCN)C(=O)N[C@H](C(=O)N[C@@H](CC(C)C)C(=O)N[C@@H](CC(C)C)C(=O)N[C@@H](CCC(=O)O)C(=O)N[C@@H](CCC(N)=O)C(=O)N[C@@H](CCC(=O)O)C(=O)N[C@@H](CCCCN)C(=O)N[C@@H](CCC(N)=O)C(=O)N[C@@H](CCCCN)C(=O)N[C@@H](CCCCN)C(=O)N[C@@H](CCC(N)=O)C(=O)N[C@@H](CCCNC(=N)N)C(=O)N[C@@H](CCC(=O)O)C(=O)N[C@@H](CCC(N)=O)C(=O)N[C@@H](C)C(=O)N[C@@H](CCC(=O)O)C(=O)N[C@H](C(=O)N[C@@H](CC(N)=O)C(=O)NC1(C(=O)N[C@@H](CCC(N)=O)C(=O)N[C@H](C(=O)N[C@@H](CC(C)C)C(=O)N[C@@H](C)C(=O)N[C@@H](CCC(N)=O)C(=O)N[C@H](C(N)=O)C(C)C)[C@@H](C)CC)CCNCC1)[C@@H](C)O)[C@@H](C)CC)[C@@H](C)CC)C(C)C)C(C)C` [compound 129] (Ac-IVLSLD[dV]PIKLK([γGlu-C18 diacid])KILLEQEKQKKQREQAETN[Api]QILAQV-NH2): the “Emax (% I)” value on CFR1R receptor is 39 % I. The molecule also yielded an EC50 at human CRF2a receptor of 0.14 nM.

Regarding `CC[C@H](C)[C@H](NC(C)=O)C(=O)N[C@H](C(=O)N[C@@H](CC(C)C)C(=O)N[C@@H](CO)C(=O)N[C@@H](CC(C)C)C(=O)N[C@@H](CC(=O)O)C(=O)N[C@@H](C(=O)N1CCC[C@H]1C(=O)N[C@H](C(=O)N[C@@H](CCCCN)C(=O)N[C@@H](CC(C)C)C(=O)N[C@@H](CCCCNC(=O)CC[C@H](NC(=O)CCCCCCCCCCCCCCCCC(=O)O)C(=O)O)C(=O)N[C@@H](CCCCN)C(=O)N[C@H](C(=O)N[C@@H](CC(C)C)C(=O)N[C@@H](CC(C)C)C(=O)N[C@@H](CCC(=O)O)C(=O)N[C@@H](CCC(N)=O)C(=O)N[C@@H](CCC(=O)O)C(=O)N[C@@H](CCCCN)C(=O)N[C@@H](CCC(N)=O)C(=O)N[C@@H](CCCCN)C(=O)N[C@@H](CCCCN)C(=O)N[C@@H](CCC(N)=O)C(=O)N[C@@H](CCCNC(=N)N)C(=O)N[C@@H](CCC(=O)O)C(=O)N[C@@H](CCC(N)=O)C(=O)N[C@@H](C)C(=O)N[C@@H](CCC(=O)O)C(=O)N[C@H](C(=O)N[C@@H](CC(N)=O)C(=O)N[C@@H](CCC(=O)O)C(=O)N[C@@H](CCC(N)=O)C(=O)N[C@H](C(=O)N[C@@H](CC(C)C)C(=O)N[C@@H](C)C(=O)N[C@@H](CCC(N)=O)C(=O)N[C@H](C(N)=O)C(C)C)[C@@H](C)CC)[C@@H](C)O)[C@@H](C)CC)[C@@H](C)CC)C(C)C)C(C)C` [compound 130] (Ac-IVLSLD[dV]PIKLK([γGlu-C18 diacid])KILLEQEKQKKQREQAETNEQILAQV-NH2), at CFR1R receptor, the “Emax (% I)” value stood at 4 % I. The EC50 is > 250 nM at CFR1R receptor and 0.08 nM at human CRF2a receptor.

For `CC[C@H](C)[C@H](NC(C)=O)C(=O)N[C@H](C(=O)N[C@@H](CC(C)C)C(=O)N[C@@H](CO)C(=O)N[C@@H](CC(C)C)C(=O)N[C@@H](CC(=O)O)C(=O)N[C@@H](C(=O)N1CCC[C@H]1C(=O)N[C@H](C(=O)N[C@@H](CCCCN)C(=O)N[C@@H](CC(C)C)C(=O)N[C@@H](CCCCNC(=O)CC[C@H](NC(=O)CCCCCCCCCCCCCCCCC(=O)O)C(=O)O)C(=O)N[C@@H](CCCCN)C(=O)N[C@H](C(=O)N[C@@H](CC(C)C)C(=O)N[C@@H](CC(C)C)C(=O)N[C@@H](CCC(=O)O)C(=O)N[C@@H](CCC(N)=O)C(=O)N[C@@H](CCC(=O)O)C(=O)N[C@@H](CCCCN)C(=O)N[C@@H](CCC(N)=O)C(=O)N[C@@H](CCCCN)C(=O)N[C@@H](CCCCN)C(=O)N[C@@H](CCC(N)=O)C(=O)N[C@@H](CCCNC(=N)N)C(=O)N[C@@H](CCC(=O)O)C(=O)N[C@@H](CCC(N)=O)C(=O)N[C@@H](C)C(=O)N[C@@H](CCC(=O)O)C(=O)N[C@H](C(=O)N[C@@H](CC(N)=O)C(=O)NC1(C(=O)N[C@@H](CCC(N)=O)C(=O)N[C@H](C(=O)N[C@@H](CC(C)C)C(=O)N[C@@H](C)C(=O)N[C@@H](CCC(N)=O)C(=O)N[C@H](C(N)=O)C(C)C)[C@@H](C)CC)CCCCC1)[C@@H](C)O)[C@@H](C)CC)[C@@H](C)CC)C(C)C)C(C)C` [compound 134] (Ac-IVLSLD[dV]PIKLK([γGlu-C18 diacid])KILLEQEKQKKQREQAETN[Ac6c]QILAQV-NH2), at CFR1R receptor, the “Emax (% I)” value was 10 % I and the EC50 is > 250 nM. At human CRF2a receptor, this molecule registered a half-maximal effective concentration (EC50) of 0.5 nM.

With `CC[C@H](C)[C@H](NC(C)=O)C(=O)N[C@H](C(=O)N[C@@H](CC(C)C)C(=O)N[C@@H](CO)C(=O)N[C@@H](CC(C)C)C(=O)N[C@@H](CC(=O)O)C(=O)N[C@@H](C(=O)N1CCC[C@H]1C(=O)N[C@H](C(=O)N[C@@H](CCCCN)C(=O)N[C@@H](CC(C)C)C(=O)N[C@@H](CCCCNC(=O)CC[C@H](NC(=O)CCCCCCCCCCCCCCCCC(=O)O)C(=O)O)C(=O)N[C@@H](CCCCN)C(=O)N[C@H](C(=O)N[C@@H](CC(C)C)C(=O)N[C@@H](CC(C)C)C(=O)N[C@@H](CCC(=O)O)C(=O)N[C@@H](CCC(N)=O)C(=O)N[C@@H](CCC(=O)O)C(=O)N[C@@H](CCCCN)C(=O)N[C@@H](CCC(N)=O)C(=O)N[C@@H](CCCCN)C(=O)N[C@@H](CCCCN)C(=O)N[C@@H](CCC(N)=O)C(=O)N[C@@H](CCCNC(=N)N)C(=O)N[C@@H](CCC(=O)O)C(=O)N[C@@H](CCC(N)=O)C(=O)N[C@@H](C)C(=O)N[C@@H](CCC(=O)O)C(=O)N[C@H](C(=O)N[C@@H](CC(N)=O)C(=O)NC1(C(=O)N[C@@H](CCC(N)=O)C(=O)N[C@H](C(=O)N[C@@H](CC(C)C)C(=O)N[C@@H](C)C(=O)N[C@@H](CCC(N)=O)C(=O)N[C@H](C(N)=O)C(C)C)[C@@H](C)CC)CCCC1)[C@@H](C)O)[C@@H](C)CC)[C@@H](C)CC)C(C)C)C(C)C` [compound 135] (Ac-IVLSLD[dV]PIKLK([γGlu-C18 diacid])KILLEQEKQKKQREQAETN[Ac5c]QILAQV-NH2), on CFR1R receptor, the “Emax (% I)” value amounted to 15 % I and the EC50 is > 250 nM. This molecule returned an EC50 on human CRF2a receptor of 0.19 nM.
